≈ marks a conversion by molar mass, not a printed value. Where two headings read alike, the source gives them in different places.
Key:
Pseudo. aeruginosa 490 = assay: In vitro MIC, Pseudo. aeruginosa 490; assay type: cell-based, Pseudomonas aeruginosa; settings: unit assumed
Source text: (§1) The in vitro spectra of a number of 6-[α-(ω-guanidinoalkanoylamido)acylamido]penicillanic acids of this invention against certain gram-negative bacteria are presented in Table I below. […] Th compounds of Table I have the formula

Serratia marcescens A001 = assay: In vitro MIC, Serratia marcescens A001; assay type: cell-based; settings: unit assumed
Source text: as §1

in vivo = settings: dog, im, 25 mg/kg
P. aeruginosa = assay: PD50 versus acute systemic P. aeruginosa infection in mice; assay type: in vivo; settings: mice; for ED50: Pseudomonas aeruginosa, 96 h, P. aeruginosa, read-out: PD50
Source text: (§2) Additionally, the compounds of this invention are active versus gram-positive and gram-negative bacteria in vivo via the parenteral route of administration in animals, including man. Their in vivo activity in animals, including man, by the oral route of administration is more limited as regards susceptible organisms. Nevertheless, oral in vivo activity against Escherichia coli and Staphylococcus aureus is a common property of many compounds of this invention. Table II below presents the comparative in vivo spectra of several compounds within the scope of this invention against D-α-aminobenzylpenicillin (Ampicillin).
(§3) The acute systemic infections in mice were produced by the intraperitoneal inoculation of standardized cultures suspended in 5% hog gastric mucin. Treatment with the drugs was initiated 0.5 hours after inoculation of the infecting organism. A second dose was administered 4 hours later. The PD50 values were calculated after a hold period of 4 days.

E. coli 266 = assay: In vitro MIC, E. coli 266, two-fold serial dilution; assay type: cell-based, Escherichia coli; settings: unit assumed
Source text: as §1

Pseudo. aeruginosa 173 = assay: In vitro MIC, Pseudo. aeruginosa 173; assay type: cell-based, Pseudomonas aeruginosa; settings: unit assumed
Source text: as §1

Proteus mirabilis C015 = assay: In vitro MIC, Proteus mirabilis C015; assay type: cell-based; settings: unit assumed
Source text: as §1

Pseudo. aeruginosa 104 = assay: In vitro MIC, Pseudo. aeruginosa 104; assay type: cell-based, Pseudomonas aeruginosa; settings: unit assumed
Source text: as §1

Escherichia coli 266 = assay: In vivo protection of mice versus Escherichia coli 266; settings: Escherichia coli, 266, sc, 96 h; 50 mg./kg., mice, subcutaneous route; read-out: % Protection
Source text: as §2, §3

Proteus vulgaris A059 = assay: In vitro MIC, Proteus vulgaris A059; assay type: cell-based; settings: unit assumed
Source text: as §1

S. aureus = assay: PD50 versus acute systemic S. aureus infection in mice; assay type: in vivo; settings: for ED50: Staphylococcus aureus, 96 h, S. aureus, mice
Source text: as §2, §3

E. coli = assay: PD50 versus acute systemic E. coli infection in mice; assay type: in vivo; settings: for ED50: Escherichia coli, 96 h, E. coli, mice
Source text: as §2, §3

CC1(C)S[C@@H]2[C@H](NC(=O)[C@H](NC(=O)NC(=N)N)c3ccccc3)C(=O)N2[C@H]1C(=O)O [B, 6-[D-2-phenyl-2-(3-guanylureido)acetamido]penicillanic acid]
MIC (Pseudo. aeruginosa 490): 1.5 µg/mL (≈ 3.45 µM) | MIC (Serratia marcescens A001): 6.25 µg/mL (≈ 14.4 µM) | concentration at 0.5 h (in vivo): 3500 ng/mL | concentration at 1 h (in vivo): 3600 ng/mL | concentration at 2 h (in vivo): 800 ng/mL | ED50 (P. aeruginosa; oral): > 200 mg/kg | ED50 (P. aeruginosa; sc, subcutaneous): 41 ± 13 mg/kg | activity against Pseudomonas aeruginosa (in words) (P. aeruginosa; in vivo): active | MIC (E. coli 266): 3.1 µg/mL (≈ 7.13 µM) | MIC (Pseudo. aeruginosa 173): 1.5 µg/mL (≈ 3.45 µM) | MIC (Proteus mirabilis C015): 0.78 µg/mL (≈ 1.8 µM) | MIC (Pseudo. aeruginosa 104): 2.5 µg/mL (≈ 5.75 µM) | responders at 50 mg/kg (Escherichia coli 266): 100% | MIC (Proteus vulgaris A059): 1.56 µg/mL (≈ 3.59 µM) | ED50 (S. aureus; oral): > 100 mg/kg | ED50 (S. aureus; sc, subcutaneous): 18 ± 9.8 mg/kg | in vivo oral activity against S. aureus (in words) (S. aureus; oral): lacks oral activity | ED50 (E. coli; oral): > 200 mg/kg | ED50 (E. coli; sc, subcutaneous): 15 ± 6.5 mg/kg | in vivo oral activity against E. coli (in words) (E. coli; oral): lacks oral activity
